Twelve compounds from PubChem BioAssay (NCI) can be followed below.

Values joined by “and” are separate entries in the source; they are usually repeats but may differ in a detail not shown here. Identical values can stand only once.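 Protocol summary: plate cells (96-well), add compound at 5 concentrations, incubate 48 h, interpolate endpoints linearly. GI50 is the concentration that inhibits growth by half. Definition used: TGI = concentration required for complete inhibition of growth.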

Common to all, as to test: inhibition of tumour cell growth, NCI panel, 48 h
Assay [1] deals with SR leukemia.
Assay [2] relates to SF-295 CNS.
Assay [3] relates to DU-145 prostate.
Assay [4] relates to BT-549 breast.
The test system of assay [5] is KM12 colon.
The subject of assay [6] is HCC-2998 colon.
For assay [7], the system named is CAKI-1 renal.
The subject of assay [8] is SNB-19 CNS.
In assay [9] the test system is A549 NSCLC.
Assay [10] deals with OVCAR-4 ovarian.

For the compound `Nc1c(C(=O)c2cccc(C#CCN3CCOCC3)c2)cnn1-c1ccc(F)cc1`, the GI50 in assay [1] is 4.09 µM; in [2], over 6.3 µM; in assay [3] it was over 25 µM; in assay [4] it was over 25 µM; in assay [5], 8.29 µM; in assay [6], over 25 µM. In addition, the GI50 is over 16 µM in assay [7], over 25 µM in [8], over 16.6 µM in assay [9] and over 25 µM in assay [10]. For the same compound, the TGI in assay [1], in assay [2], in [3], in assay [4], in assay [5] and in assay [6] was over 25 µM throughout. Further, the TGI in [7], in assay [8], in [9] and in assay [10] was over 25 µM throughout.

For the compound `S=C=NCc1ccccc1`, the TGI in [1] is 12.1 µM; in assay [2], 19.4 µM; in assay [3], over 41.2 µM; in assay [4], 5.12 µM; in assay [5] it was 15.8 µM; in assay [6] it was 23.1 µM. Further, the TGI turned out to be 4.26 µM in [7], 13.1 µM in assay [8], 17.9 µM in assay [9] and 13.8 µM in assay [10].

For `Nc1ncnc2c(C3OC(CO)C(O)C3O)[nH]nc12` (centres undefined), the GI50 is 0.0347 µM in assay [1]; 0.231 µM in assay [2]; 0.0125 µM in assay [3]; 0.113 µM in [4]; 0.076 µM in [5]; 0.0575 µM in assay [6]. For the same compound, the GI50 in assay [7] was 0.0365 µM and 0.061 µM; in assay [8] it was 0.138 µM; in assay [10] it was 0.116 µM. Also, the TGI was 1.1 µM and 10.1 µM in [2]; 0.278 µM in assay [3]; 3.38 µM in assay [4]; 8.13 µM and 14.3 µM in [5]; 3.11 µM and 1.31 µM in assay [6]; 0.281 µM and 0.214 µM in [7]. In addition, the TGI in assay [8] is 3.68 µM and 24.8 µM; in assay [9] it was 9.43 µM; in assay [10], 3.51 µM and 2.3 µM.

As for `Nc1nc(N)c2c(ccc3nccc32)[nH]1`, the GI50 in [1] is 1.29 µM; in [2] it was 1.95 µM; in assay [3], 8.61 µM; in [4] it was 3.06 µM; in assay [5], 5.05 µM; in assay [6], 9.79 µM. Besides, the GI50 in assay [7] is 2.82 µM; in [8], 7.98 µM; in [9], 0.755 µM; in assay [10], 21.5 µM. The TGI is over 91.3 µM in [2]; 57.4 µM in assay [3]; 24.1 µM in assay [4]; 27.1 µM in [5]; over 91 µM in assay [6]; 12.8 µM in [7]. In addition, the TGI in assay [8] is over 100 µM; in assay [9], over 100 µM; in [10], 66.6 µM.

`Cc1cc2c3ccccc3ccc2[n+]2ccccc12`: the GI50 in assay [1] was 2.25 µM; in assay [2] it was 2.29 µM; in [3], 9.02 µM; in [4], 1.4 µM; in assay [5], 1.43 µM; in assay [6] it was 4.71 µM. Moreover, the GI50 in assay [7] is over 28 µM; in assay [8], 2.11 µM; in [9], 0.628 µM; in [10] it was 2.88 µM. The TGI was 12.9 µM in assay [1]; 12.7 µM in assay [2]; 40.4 µM in assay [3]; 7.77 µM in assay [4]; 11.6 µM in [5]; 19.7 µM in assay [6]. Further, the TGI in assay [7] is over 100 µM; in assay [8], 8.72 µM; in [9] it was over 76.9 µM; in assay [10], 14.8 µM.

Turning to `Nc1c(C(=O)c2cccc(CCC3(O)CCCC3)c2)cnn1-c1ccc(F)cc1`, the GI50 was 13.6 µM in [1]; 9.4 µM in assay [2]; over 21.1 µM in [3]; 9.75 µM in assay [4]; 17.1 µM in assay [5]; over 25 µM in [6]. Also, the GI50 is over 25 µM in [7], 15.3 µM in [8], 12.6 µM in [9] and 8.71 µM in assay [10]. The TGI in assay [1], in assay [2], in [3], in assay [4], in assay [5] and in assay [6] was over 25 µM each time. Also, the TGI in assay [7], in [8], in assay [9] and in assay [10] was over 25 µM in each case.

As for `Nc1ccn(C2CC(O)C(CO)O2)c(=O)n1` (centres undefined), the GI50 in assay [1], in assay [2], in assay [3], in [4], in assay [5] and in assay [6] was over 5000 µM each time. Further, the GI50 in [7], in assay [8], in assay [9] and in [10] was over 5000 µM throughout. The TGI in assay [1], in assay [2], in assay [3], in assay [4], in [5] and in assay [6] was over 5000 µM throughout. Moreover, the TGI in assay [7], in [8], in assay [9] and in assay [10] was over 5000 µM in each case.

`Cc1cccc(NC(=O)CCl)c1`: the TGI in assay [1], in assay [2], in assay [3], in [4], in assay [5] and in assay [6] was over 10 µM throughout. The TGI in [7] was over 10 µM; in assay [8], over 10 µM; in assay [9], over 10 µM; in assay [10], 8.18 µM.

In the case of `CCOC(=O)Cn1c(C)c(/C=N/NC(=O)c2cc3c(ccc4ccccc43)o2)c2ccccc21`, the GI50 was 0.153 µM in assay [1]; 0.323 µM in [2]; 0.411 µM in assay [3]; 0.853 µM in assay [4]; 0.306 µM in [5]; 0.609 µM in assay [6]. Further, the GI50 in [7] is 0.575 µM; in assay [8], 0.478 µM; in assay [9], 0.627 µM; in assay [10] it was 1.36 µM. For the same compound, the TGI in [1] is over 21.8 µM; in assay [2], 1.65 µM; in assay [3] it was 2.93 µM; in assay [4], 5.13 µM; in [5], 1.52 µM; in assay [6], 2.84 µM. The TGI was 2.37 µM in assay [7], 16.3 µM in assay [8], 5.85 µM in [9] and 9.27 µM in assay [10].

`O=c1oc2ccc(Cl)cc2c(=O)n1-c1cc(C(F)(F)F)cc(C(F)(F)F)c1`: the GI50 in assay [1] is 0.308 µM; in assay [2], 0.206 µM; in [3], 0.372 µM; in assay [4], 0.258 µM; in assay [5] it was 0.342 µM; in [6], 0.346 µM. Besides, the GI50 is 0.198 µM in assay [7], 0.293 µM in assay [8], 0.339 µM in assay [9] and 0.292 µM in assay [10]. Besides, the TGI in [1] was over 51 µM; in [2], 0.504 µM; in assay [3], 13.9 µM; in [4] it was 0.86 µM; in [5], 1.32 µM; in [6], 3.77 µM. Moreover, the TGI is 0.689 µM in assay [7], 11.7 µM in assay [8], 13.1 µM in assay [9] and 29.2 µM in assay [10].

In the case of `COc1cccc(-n2ncc3c(N/N=C/c4ccc(S(C)(=O)=O)cc4)ncnc32)c1`, the GI50 in [1] is over 12.4 µM; in assay [2], 12.3 µM; in assay [3], 16.4 µM; in assay [4], 13.5 µM; in [5], 6.29 µM; in [6], 12.4 µM. Further, the GI50 in [7] is 4.81 µM; in [8], 11.5 µM; in [9], 9.24 µM; in [10] it was 13.1 µM. Moreover, the TGI in [1], in assay [2], in assay [3], in assay [4], in assay [5] and in assay [6] was over 25 µM each time. Besides, the TGI in [7], in assay [8], in assay [9] and in [10] was over 25 µM each time.

Regarding `N#CSCc1c(Cl)cccc1Cl`, the TGI is over 24 µM in [1]; over 91.4 µM in [2]; 5.71 µM in [3]; 7.48 µM in assay [4]; 45.2 µM in [6]; over 20.2 µM in assay [7]. The TGI in assay [8], in [9] and in assay [10] was over 100 µM throughout. Moreover, the GI50 is 16.2 µM in [2]; 2.74 µM in assay [3]; 2.31 µM in [4]; 4.19 µM in assay [6]; 0.309 µM in assay [7]; 32.3 µM in [8]. Moreover, the GI50 in assay [9] was 3.31 µM; in assay [10], 5.82 µM.
